Key:
Format in all cases: physicochemical
[1] = Accelerated stability of compressed tablets (试验例3 压片稳定性); conditions: round tablets 0.5 g/tablet, 40℃±2℃, 6 months, sampled at 0, 1, 2, 3, 6 months
[2] = Freeze-drying test, water before and after (试验例2 冷冻干燥试验); conditions: 0.25 g/vial, vacuum, -40℃, 24 h
[3] = Accelerated stability test of the bulk compound (试验例1 稳定性考察); conditions: 40℃±2℃, 6 months, sampled at 0, 1, 2, 3, 6 months

Row | Compound | change in water content of compressed tablets (accelerated test) ([1]; 1/20水) | change in water content after freeze-drying ([2]; 1/20水) | change in water content (accelerated test) ([3]; 1/20水) | change in water content of compressed tablets (accelerated test) [1] | change in water content after freeze-drying [2] | change in water content (accelerated test) [3]
1 | NC(=O)c1ncn([C@@H]2O[C@H](CO)[C@@H](O)[C@H]2O)n1 [实施例1, 1/20水利巴韦林化合物] | 未发生明显变化 | 未发生明显变化 | 未发生明显变化 |  |  | 
2 | NC(=O)c1ncn([C@@H]2O[C@H](CO)[C@@H](O)[C@H]2O)n1 [对比例1, 利巴韦林] |  |  |  | 明显降低 | 明显降低 | 明显降低

Source: CN109134566A, “一种1/20水利巴韦林化合物” (Individual, priority 2017, dated 2019)
